# From US12409172B2, “Dosage regimen” (UNION therapeutics A/S, priority 2023, dated 2025)
# What was measured:
# [1] = Clinical trial LP0058-1442 in healthy volunteers: PK of modified-release tablet vs immediate-release capsule; assay type: in vivo, human; settings: for AUC(0-t): human, plasma, oral, read-out: AUClast, NCA GM (CV %)
# Method: The modified-release formulation was studied in a clinical trial (LP0058-1442) and administered in a total of 36 healthy volunteers: 18 in part 1, 9 in part 2, and 9 in part 3. Twenty-seven (27) healthy volunteers received a single administration of 30 mg orismilast, and 9 subjects received multiple administrations over a period of 17 days with an up-titration up to a maximum of 60 mg BID. Part 1 of this study was to evaluate the key PK parameters of the new modified-release formulation compared to the reference capsule formulation with immediate release. Orismilast was rapidly absorbed from both formulations with median tmax values of 3.00 hours post-dose for the immediate-release capsule and 2.52 hours post-dose for the modified-release tablet. The individual tmax ranges were approximately 1 to 6 hours post-dose for the immediate-release capsule and 1 to 4 hours post-dose for the modified-release tablet. […] It can therefore be reasonably assumed that the safety profile resulting from systemic effects can be extrapolated from studies having investigated the immediate-release formulation and in particular, study LP0058-1072, a Phase 2a study including 36 patients with moderate to severe psoriasis vulgaris.
# Following administration of modified release tablet as a single oral dose and after multiple doses up to 60 mg, orismilast reached a Cmax around 3 h under fasting state.
# [2] = system: adults with moderate-to-severe plaque-type psoriasis; assay: Phase 2b dose-ranging study in psoriasis (Example 3): efficacy (PASI), incl. body-weight sub-group and post-hoc analysis; assay type: in vivo, human
# Description: • Percentage change in Psoriasis […] and Severity Index (PASI) score from Baseline at Week 16. Key Secondary Endpoints • Patients achieving 75% reduction in PASI (PASI75) response at Week 16. • Patients achieving a score of Clear (0) or Almost Clear (1) and an at least 2-point improvement in Investigator Global Assessment (IGA) at Week 16. […] Safety Endpoints: • The occurrence, severity, and seriousness of treatment-emergent adverse events (TEAEs) reported over the 16-week Treatment Period and the 4-week Follow-up Period. • Changes from Baseline in physical examination; vital sign measurements (body temperature, respiration rate, heart rate, and systolic and diastolic blood pressure measurements); and body weight over the 16-week Treatment Period and the 4-week Follow-up Period. • Changes from Baseline in electrocardiogram (ECG) findings over the 16-week Treatment Period and the 4-week Follow-up Period. • Changes from Baseline in safety laboratory values (haematology, serum chemistry, and urinalysis) over the 16-week Treatment Period and the 4-week Follow-up Period. • Hospital Anxiety and Depression Scale at each visit except Week 2. • Columbia-Suicide Severity Rating Scale (C-SSRS) at each visit except Weeks 1 and 2. Exploratory Endpoints: • Change from Baseline in Physician's Global Assessment of Fingernails (PGA-F) at Week 16. • Change in Scalp-Specific Investigator Global Assessment (ss-IGA) from Baseline at Week 16 in the subgroup of patients with Baseline score of at least 2 (mild scalp psoriasis). • Change from Baseline of scalp itch Numeric Rating Scale (NRS) at Week 16 in the subgroup of patients with Baseline score of at least 4 on the 11-point NRS. • Change from Baseline in joint pain NRS at Week 16 in patients with psoriatic arthritis (PsA) and a Baseline joint pain score of at least 4. • Change in cardiovascular risk factors at Week 16. The following parameters will be collected: weight, body mass index, waist and hip circumferences, blood pressure, fasting serum glucose, triglycerides, cholesterol (total and high-density lipoprotein/low-density lipoprotein fractions), and C-reactive protein. • Change from Baseline in skin biomarkers at Week 16 collected via tape stripping and analysed using proteomic methods. • Plasma levels of the drug and its metabolites at scheduled visits. Study Design
# A multicentre, randomized, double-blind, placebo-controlled, parallel group, Phase 2b dose-ranging study designed to assess the efficacy and safety of modified-release orismilast compared with placebo in adult patients with moderate-to-severe plaque-type psoriasis. Efficacy and safety outcomes will be evaluated to select an appropriate orismilast dose for subsequent Phase 3 studies.
# After a Screening visit up to 28 days before Baseline, 202 patients were assigned randomly in a 1:1:1:1 ratio to receive 1 of the 3 orismilast doses (20 mg, 30 mg, or 40 mg) or placebo twice daily (BID) for 16 weeks, with a 4-week Follow-up visit. Administration will begin at Baseline with a dose titration period. The maximum duration of study participation was approximately 24 weeks.
# At Baseline and each visit from Week 4 onwards, PASI, BSA, IGA, and PSS were assessed. Quality of life was assessed by administration of DLQI at Baseline and at Weeks 16 and 20 visits. Additional efficacy parameters include: an ss-IGA, a Physician Global Assessment of fingernail psoriasis (PGA-F), and patient's joint pain NRS for those with a diagnosis of PsA. These parameters were assessed at Baseline and Weeks 16 and 20. Safety evaluations include adverse events (Aes), laboratory and vital sign assessments, physical examinations, as well as mood change evaluation by patient (Hospital Anxiety and Depression Scale) and suicidal ideation evaluation by Investigator (C-SSRS). A panel of cardiovascular risk factors were assessed at Baseline and Week 16. […]
# CYP2D6 = CYP2D6 (Homo sapiens, UniProt P10635); assay: CYP2D6 inhibition in vitro; assay type: in vitro ADME
# Description: Concomitant use of orismilast • with other drugs mainly metabolized by the cytochrome CYP2D6 has not been studied clinically.
# [3] = system: PDE4B and PDE4D subtype splice variants; assay: PDE4 inhibition in vitro; assay type: biochemical
# [4] = Chinese healthy volunteer study CIB1353A101: PK; settings: human, in vivo, oral; CIBI3S3A101 (D1 = 10 mg); N 18; read-out: AUClast, NCA GM (CV %)
# [5] = system: PDE4B and PDE4D subtype splice variants; settings: in vitro; cited from earlier work
# [6] = system: human peripheral blood mononuclear cells PBMC; settings: in vitro; cited from earlier work
# [7] = post-hoc group 20 mg BID (<100 kg)/30 mg BID (≥100 kg), NRI
# Chain of CYP2D6 (P10635 whole entry): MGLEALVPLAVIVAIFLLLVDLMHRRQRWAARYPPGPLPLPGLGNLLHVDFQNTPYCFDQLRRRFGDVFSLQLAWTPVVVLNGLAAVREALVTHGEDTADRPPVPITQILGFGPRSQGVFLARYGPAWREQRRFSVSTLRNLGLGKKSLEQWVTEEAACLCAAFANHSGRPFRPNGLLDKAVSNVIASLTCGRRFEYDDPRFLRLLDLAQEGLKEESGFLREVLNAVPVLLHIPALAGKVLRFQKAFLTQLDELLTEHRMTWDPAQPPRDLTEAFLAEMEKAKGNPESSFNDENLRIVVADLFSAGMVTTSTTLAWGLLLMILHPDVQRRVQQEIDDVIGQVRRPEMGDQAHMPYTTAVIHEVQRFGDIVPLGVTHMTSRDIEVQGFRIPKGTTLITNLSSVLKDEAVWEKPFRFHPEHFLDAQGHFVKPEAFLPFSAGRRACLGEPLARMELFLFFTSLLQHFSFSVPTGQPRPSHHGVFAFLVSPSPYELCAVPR
smiles,measurement,setting,value
"O=C(Cc1c(Cl)c[n+]([O-])cc1Cl)c1ccc(OC(F)F)c2c1OC1(CCS(=O)(=O)CC1)O2 [orismilast, 2-(3,5-dichloro-1-oxidopyridin-1-ium-4-yl)-1-[7-(difluoromethoxy)-1′,1′-dioxospiro[1,3-benzodioxole-2,4′-thiane]-4-yl]ethanone]",AUC(0-t),"[1]; 10 mg, 1442 - Part 3 (D1 = 10 mg), N 9",112 ng·h/mL
same,AUC(0-t),"[1]; 30 mg, 1442 - Part 1 (MR, 30 mg), N 18",482 ng·h/mL
same,AUC(0-t),"[1]; 30 mg, 1442 - Part 2 (Fast, 30 mg), N 9",480 ng·h/mL
same,AUC(0-t),"[1]; 60 mg, 1442 - Part 3 (D17 = 60 mg), N 9",763 ng·h/mL
same,systemic exposure with high-fat meals,[1]; modified release tablet,significant increase
same,mean percentage change in PASI from baseline to Week 16,[2]; 20 mg BID,−52.6%
same,PASI-75 responders,"[2]; 20 mg BID, NRI",35%
same,PASI-90 responders,"[2]; 20 mg BID, NRI",23%
same,PASI-100 responders,"[2]; 20 mg BID, NRI",8%
same,mean percentage change in PASI from baseline to Week 16,[2]; 30 mg BID,−61.2%
same,PASI-75 responders,"[2]; 30 mg BID, NRI",44%
same,PASI-90 responders,"[2]; 30 mg BID, NRI",20%
same,PASI-100 responders,"[2]; 30 mg BID, NRI",8%
same,mean percentage change in PASI from baseline to Week 16,[2]; 40 mg BID,−63.7%
same,efficacy of post-hoc group 20 mg BID (<100 kg)/30 mg BID (≥100 kg) relative to all pre-specified treatment arms,[2]; NRI,improved
same,efficacy of the 20 mg BID dose vs the 30 mg BID dose in patients weighing ≥100 kg,"[2]; PASI50, PASI75, PASI90, weeks 4, 8, 12 and 16",less efficacious
same,efficacy of the 20 mg BID dose vs the 30 mg BID dose in patients weighing <100 kg at baseline,[2]; PASI75 and in particular PASI90,(similar or) more efficacious
same,"treatment effect versus placebo, percentage change in PASI from baseline to Week 16 (primary endpoint)","[2]; all doses (20, 30, 40 mg BID)",statistically significant treatment effect
same,PASI-75 responders,[2]; [7],46%
same,PASI-90 responders,[2]; [7],29%
same,PASI-100 responders,[2]; [7],10%
same,"efficacy (PASI50, PASI75, PASI90) of the 30 mg BID dose in patients weighing ≥100 kg compared to <100 kg at baseline","[2]; weeks 4, 8, 12 and 16",consistently higher
same,inhibition of CYP2D6,CYP2D6,competitive direct inhibitor
same,inhibition of the PDE4 isoforms PDE4D3 and PDE4B2,[3],selective inhibitor
same,AUC(0-t),[4],167 ng·h/mL
same,inhibition of PDE4B and PDE4D subtype splice variants,[5],potent inhibitor
same,"secretion of Th1 (TNFα and IFNγ), Th17 (IL-22 and IL-23) and Th2 (IL-4, IL-5, and IL-13) related cytokines in PBMC",[6],inhibited
